These are literature values, as cited in patent US9198935B2, “Hydrogen peroxide-based skin disinfectant” (VIROX TECHNOLOGIES INC., priority 2004, dated 2015).

Like-named read-outs stand apart in the source and are kept apart here.

This series relates to Staphylococcus aureus.

In the case of `OO` [hydrogen peroxide], the “time to achieve a greater than 6 log reduction in Staphylococcus aureus” value runs as follows: (25% w/w aqueous solution of hydrogen peroxide) 20 seconds; (solution containing 3% w/w hydrogen peroxide) 20 minutes.
